From US20220002283A1 (Mylan Laboratories Limited, priority 2019, published 2022)

Tests used:
[1] = physchem
[2] = cited from earlier work
[3] = Solid state stability, PXRD; format: physicochemical; parameters: key: X: crystalline; S: stable
[4] = Solid state stability, HPLC meloxicam co-crystal assay; format: physicochemical
[5] = Solid state stability, impurities by HPLC; format: physicochemical
[6] = Solid state stability, physical and chemical (PXRD and HPLC), overall finding; conditions: 40° C./75% RH and 25° C./60% RH, three months
[7] = 25° C./60% RH, 1 mo., samples as per Example 7 or 17
[8] = 25° C./60% RH, 2 mo., samples as per Example 7 or 17
[9] = 25° C./60% RH, 3 mo., samples as per Example 7 or 17
[10] = 25° C./60% RH, Initial, samples as per Example 7 or 17
[11] = 40° C./75% RH, 1 mo., samples as per Example 7, 17 or 14
[12] = 40° C./75% RH, 2 mo., samples as per Example 7, 17 or 14
[13] = 40° C./75% RH, 3 mo., samples as per Example 7 or 17
[14] = 40° C./75% RH, Initial, samples as per Example 7, 17 or 14

In the case of `O=C(O)c1ccc2ccccc2c1O` [1-Hydroxy-2-naphthoic acid], the pKa [1] is reported as 1.5.
In the case of `O=C(O)c1ccc(O)cc1` [4-Hydroxybenzoic acid], the “pKa (co-former)” value [2] is listed as 4.58 and the pKa [1] is listed as -0.38.
In the case of `O=C(O)CCc1ccccc1` [Hydrocinnamic acid], the “pKa (co-former)” value [2] is listed as 4.66 and the pKa [1] is listed as -0.46.
For `Cc1cnc(NC(=O)C2=C(O)c3ccccc3S(=O)(=O)N2C)s1.Cc1cnc(NC(=O)C2=C(O)c3ccccc3S(=O)(=O)N2C)s1.O=C(O)CCC(=O)O` [Meloxicam:Succinic acid (2:1)], the PXRD [3, 7] was “S”, the PXRD [3, 8] was “S” and the PXRD [3, 9] was “S”. For the same compound, the PXRD [3, 10] was “X”, the PXRD [3, 11] was “S” and the PXRD [3, 12] was “S”. The PXRD [3, 13] was “S”, the PXRD [3, 14] was “X” and the “Assay (% by HPLC) M % (Meloxicam Assay %)” value (“Assay (% by HPLC) M %” below) [4, 7] was 85.2%. For the same compound, the “Assay (% by HPLC) M %” value [4, 8] was 85.1%, the “Assay (% by HPLC) M %” value [4, 9] was 84.8% and the “Assay (% by HPLC) M %” value [4, 10] was 85.1%. The “Assay (% by HPLC) M %” value [4, 11] was 84.8%, the “Assay (% by HPLC) M %” value [4, 12] was 83.9% and the “Assay (% by HPLC) M %” value [4, 13] was 84.9%. The “Assay (% by HPLC) M %” value [4, 14] was 85.1%, the “Impurities (% w/w, by HPLC) Ethyl Meloxicam” value [5, 7] was “BDL” and the “Impurities (% w/w, by HPLC) Methyl Meloxicam” value [5, 7] was 0.01 % w/w. The “Impurities (% w/w, by HPLC) Other* (any other individual impurity)” value (“Impurities (% w/w, by HPLC) Other*” below) [5, 7] was 0.03 % w/w, the “Impurities (% w/w, by HPLC) Total” value [5, 7] was 0.14 % w/w and the “Impurities (% w/w, by HPLC) Ethyl Meloxicam” value [5, 8] was “BDL”. For the same compound, the “Impurities (% w/w, by HPLC) Methyl Meloxicam” value [5, 8] was “BDL”, the “Impurities (% w/w, by HPLC) Other*” value [5, 8] was 0.03 % w/w and the “Impurities (% w/w, by HPLC) Total” value [5, 8] was 0.13 % w/w. The “Impurities (% w/w, by HPLC) Ethyl Meloxicam” value [5, 9] was “BDL”, the “Impurities (% w/w, by HPLC) Methyl Meloxicam” value [5, 9] was “BDL” and the “Impurities (% w/w, by HPLC) Other*” value [5, 9] was 0.02 % w/w. For the same compound, the “Impurities (% w/w, by HPLC) Total” value [5, 9] was 0.13 % w/w, the “Impurities (% w/w, by HPLC) Ethyl Meloxicam” value [5, 10] was “BDL” and the “Impurities (% w/w, by HPLC) Methyl Meloxicam” value [5, 10] was 0.01 % w/w. The “Impurities (% w/w, by HPLC) Other*” value [5, 10] was 0.03 % w/w, the “Impurities (% w/w, by HPLC) Total” value [5, 10] was 0.06 % w/w and the “Impurities (% w/w, by HPLC) Ethyl Meloxicam” value [5, 11] was “BDL”. The “Impurities (% w/w, by HPLC) Methyl Meloxicam” value [5, 11] was 0.01 % w/w, the “Impurities (% w/w, by HPLC) Other*” value [5, 11] was 0.03 % w/w and the “Impurities (% w/w, by HPLC) Total” value [5, 11] was 0.14 % w/w. For the same compound, the “Impurities (% w/w, by HPLC) Ethyl Meloxicam” value [5, 12] was “BDL”, the “Impurities (% w/w, by HPLC) Methyl Meloxicam” value [5, 12] was “BDL” and the “Impurities (% w/w, by HPLC) Other*” value [5, 12] was 0.03 % w/w. For the same compound, the “Impurities (% w/w, by HPLC) Total” value [5, 12] was 0.12 % w/w, the “Impurities (% w/w, by HPLC) Ethyl Meloxicam” value [5, 13] was “BDL” and the “Impurities (% w/w, by HPLC) Methyl Meloxicam” value [5, 13] was “BDL”. For the same compound, the “Impurities (% w/w, by HPLC) Other*” value [5, 13] was 0.01 % w/w, the “Impurities (% w/w, by HPLC) Total” value [5, 13] was 0.08 % w/w and the “Impurities (% w/w, by HPLC) Ethyl Meloxicam” value [5, 14] was “BDL”. The “Impurities (% w/w, by HPLC) Methyl Meloxicam” value [5, 14] was 0.01 % w/w, the “Impurities (% w/w, by HPLC) Other*” value [5, 14] was 0.03 % w/w and the “Impurities (% w/w, by HPLC) Total” value [5, 14] was 0.06 % w/w. The “Meloxicam Related Compounds A, B, C, and D by HPLC” value ([5]; any timepoint from initiation up to 3 months, 40° C./75% RH and 25° C./60% RH) was “^#Meloxicam Related Compounds A, B, C, and D (see Table 4a) were not detectable at any timepoint from initiation up to 3 months” and the “physical and chemical stability” value [6] was “physically and chemically stable”.
With `O=C(O)CCC(=O)O` [Succinic acid] the pKa [1] was -0.01.
